Data published in PubChem BioAssay AID256 (DTP/NCI, 2004).
Where “and” joins values, the source holds several entries; their conditions need not be identical. Equal entries are not always repeated. Toxic doses and inconclusive results are not listed.

Test system: CD2F1 mice, L1210 leukemia ip, survival T/C
Assay: NCI In Vivo Anticancer Drug Screen. Data for tumor model L1210 Leukemia (intraperitoneal) in CD2F1 (CDF1) mice
Settings: higher = longer survival
Summary of the method: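 Each value reflects a quotient of treated over vehicle control outcomes in mice with a transplanted tumor.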

[1] = endpoint: mean survival time, dose: 100.0 mg/kg/injection, schedule: Q01DX001 (ip), vehicle: saline with Tween-80
[2] = endpoint: mean survival time, dose: 200.0 mg/kg/injection, schedule: Q01DX001 (ip), vehicle: saline with Tween-80
[3] = endpoint: mean survival time, dose: 400.0 mg/kg/injection, schedule: Q01DX001 (ip), vehicle: saline with Tween-80

SMILES: Cn1c(=O)c2[nH]c(-c3ccc(Cl)c(Cl)c3)nc2n(C)c1=O
- T/C (endpoint: mean survival time, dose: 12.5 mg/kg/injection, schedule: Q01DX005 (ip), vehicle: other): 101 % of control
- T/C (endpoint: mean survival time, dose: 25.0 mg/kg/injection, schedule: Q01DX005 (ip), vehicle: other): 92 % of control
- T/C (endpoint: mean survival time, dose: 50.0 mg/kg/injection, schedule: Q01DX005 (ip), vehicle: other): 92 % of control
- T/C (endpoint: mean survival time, dose: 100.0 mg/kg/injection, schedule: Q01DX005 (ip), vehicle: other): 87 % of control
- T/C (endpoint: mean survival time, dose: 200.0 mg/kg/injection, schedule: Q01DX005 (ip), vehicle: other): 89 % of control

SMILES: O=c1[nH]cnc2c1ncn2CCCCCO
- T/C [1]: 95 % of control
- T/C (endpoint: mean survival time, dose: 100.0 mg/kg/injection, schedule: Q04DX002 (ip), vehicle: saline with Tween-80): 97 % of control
- T/C [2]: 100 % of control
- T/C (endpoint: mean survival time, dose: 200.0 mg/kg/injection, schedule: Q04DX002 (ip), vehicle: saline with Tween-80): 102 % of control
- T/C [3]: 95 % of control
- T/C (endpoint: mean survival time, dose: 400.0 mg/kg/injection, schedule: Q04DX002 (ip), vehicle: saline with Tween-80): 94 % of control

SMILES: NCc1ccccc1
- T/C (endpoint: mean survival time, dose: 100.0 mg/kg/injection, schedule: Q01DX009 (ip), vehicle: saline with Tween-80): 96 % of control
- T/C (endpoint: mean survival time, dose: 100.0 mg/kg/injection, schedule: Q04DX003 (ip), vehicle: acetone): 110 % of control
- T/C (endpoint: mean survival time, dose: 100.0 mg/kg/injection, schedule: Q04DX003 (ip), vehicle: saline with Tween-80): 99 % of control
- T/C (endpoint: mean survival time, dose: 200.0 mg/kg/injection, schedule: Q01DX009 (ip), vehicle: saline with Tween-80): 100 % of control
- T/C (endpoint: mean survival time, dose: 200.0 mg/kg/injection, schedule: Q04DX003 (ip), vehicle: acetone): 108 % of control
- T/C (endpoint: mean survival time, dose: 200.0 mg/kg/injection, schedule: Q04DX003 (ip), vehicle: saline with Tween-80): 99 % of control
- T/C (endpoint: mean survival time, dose: 400.0 mg/kg/injection, schedule: Q01DX009 (ip), vehicle: saline with Tween-80): 98 % of control
- T/C (endpoint: mean survival time, dose: 400.0 mg/kg/injection, schedule: Q04DX003 (ip), vehicle: acetone): 97 % of control
- T/C (endpoint: mean survival time, dose: 400.0 mg/kg/injection, schedule: Q04DX003 (ip), vehicle: saline with Tween-80): 97 % of control

SMILES: CN(C)C=NCCc1ccccc1
- T/C (endpoint: mean survival time, dose: 50.0 mg/kg/injection, schedule: Q01DX001 (ip), vehicle: saline): 97 % of control

SMILES: N#Cc1cc(Cl)c(OCc2ccccc2)c(Cl)c1
- T/C [1]: 87 % of control
- T/C [3]: 101 % of control

SMILES: CCOC(=O)Nc1cc(Nc2ccccc2)c2[nH]cnc2n1
- T/C (endpoint: mean survival time, dose: 12.5 mg/kg/injection, schedule: Q01DX001 (ip), vehicle: Klucel (hydroxypropylcellulose) (HPC)): 96 % of control
- T/C (endpoint: mean survival time, dose: 25.0 mg/kg/injection, schedule: Q01DX001 (ip), vehicle: Klucel (hydroxypropylcellulose) (HPC)): 93 % of control
- T/C (endpoint: mean survival time, dose: 50.0 mg/kg/injection, schedule: Q01DX001 (ip), vehicle: Klucel (hydroxypropylcellulose) (HPC)): 93 % of control
- T/C (endpoint: mean survival time, dose: 100.0 mg/kg/injection, schedule: Q01DX001 (ip), vehicle: Klucel (hydroxypropylcellulose) (HPC)): 93 % of control
- T/C (endpoint: mean survival time, dose: 200.0 mg/kg/injection, schedule: Q01DX001 (ip), vehicle: Klucel (hydroxypropylcellulose) (HPC)): 95 % of control
- T/C (endpoint: mean survival time, dose: 400.0 mg/kg/injection, schedule: Q01DX001 (ip), vehicle: Klucel (hydroxypropylcellulose) (HPC)): 93 % of control

SMILES: O=C(O)c1ccc(C(=O)O)o1.[NH-]C1CCCCC1[NH-].[Pt+2]
- T/C (endpoint: mean survival time, dose: 1.25 mg/kg/injection, schedule: Q04DX003 (ip), vehicle: dextrose): 122 % of control and 102 % of control
- T/C (endpoint: mean survival time, dose: 2.5 mg/kg/injection, schedule: Q04DX003 (ip), vehicle: dextrose): 111 % of control and 112 % of control
- T/C (endpoint: mean survival time, dose: 5.0 mg/kg/injection, schedule: Q04DX003 (ip), vehicle: dextrose): 117 % of control
- T/C (endpoint: mean survival time, dose: 20.0 mg/kg/injection, schedule: Q04DX003 (ip), vehicle: dextrose): 183 % of control
- T/C (endpoint: mean survival time, dose: 40.0 mg/kg/injection, schedule: Q04DX003 (ip), vehicle: dextrose): 94 % of control

SMILES: CCCC(=O)O.CCCC(=O)O.CCCC(=O)O.CCCC(=O)O.O=P1(N(CCCl)CCCl)NCCCO1.O=P1(N(CCCl)CCCl)NCCCO1.[Rh].[Rh] (stereo not given)
- T/C (endpoint: median survival time, dose: 0.13 mg/kg/injection, schedule: Q01DX001 (ip), vehicle: olive oil, sesame oil, peanut oil): 101 % of control
- T/C (endpoint: median survival time, dose: 0.25 mg/kg/injection, schedule: Q01DX001 (ip), vehicle: olive oil, sesame oil, peanut oil): 102 % of control
- T/C (endpoint: median survival time, dose: 0.5 mg/kg/injection, schedule: Q01DX001 (ip), vehicle: olive oil, sesame oil, peanut oil): 103 % of control
- T/C (endpoint: median survival time, dose: 1.0 mg/kg/injection, schedule: Q01DX001 (ip), vehicle: olive oil, sesame oil, peanut oil): 95 % of control
- T/C (endpoint: median survival time, dose: 2.0 mg/kg/injection, schedule: Q01DX001 (ip), vehicle: olive oil, sesame oil, peanut oil): 102 % of control

SMILES: CC(C)(C(=O)O)C(C)(C)C(=O)O
- T/C [1]: 98 % of control
- T/C [2]: 98 % of control
- T/C [3]: 101 % of control

SMILES: Nc1cccc2c1-c1ccccc1C2
- T/C (endpoint: mean survival time, dose: 50.0 mg/kg/injection, schedule: Q04DX003 (ip), vehicle: Klucel (hydroxypropylcellulose) (HPC)): 105 % of control
- T/C (endpoint: mean survival time, dose: 100.0 mg/kg/injection, schedule: Q04DX003 (ip), vehicle: Klucel (hydroxypropylcellulose) (HPC)): 96 % of control
- T/C (endpoint: mean survival time, dose: 200.0 mg/kg/injection, schedule: Q04DX003 (ip), vehicle: Klucel (hydroxypropylcellulose) (HPC)): 102 % of control
